Assay results published in PMC7378375, “High-Throughput Screening of a Functional Human CXCL12-CXCR4 Signaling Axis in a Genetically Modified S. cerevisiae: Discovery of a Novel Up-Regulator of CXCR4 Activity” (Frontiers in Molecular Biosciences, 2020).

Target: CXCL12 (Homo sapiens, UniProt P48061)
Experiment: 1H-15N HSQC NMR titration of […]-CXCL12 (global fit of eight resonances, pH […]); supported by SEC-MALS
Assay type: binding

Chain of CXCL12 (P48061 22-88): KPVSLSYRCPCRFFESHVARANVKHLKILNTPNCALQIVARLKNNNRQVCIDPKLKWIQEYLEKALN

Kd: 147 µM
SMILES: O=C(O)c1ccccc1OP(=O)(O)O [fosfosal, 2-(phosphonooxy) benzoic acid]
